Test results taken from patent publication US10494375B2, “Antimicrobial compound” (priority 2016, dated 2019).
≈ marks a conversion by molar mass, not a printed value. Read-outs that look alike come from different tables or passages of the source. Where a SMILES comes first, the peptide text is derived from it. Bridges are numbered along the chain shown (N, C = ends). [ ]: non-standard residue; d: D form. The star is where a group is joined. Ileψ(thiazoline)Cys = CC[C@H](C)[C@H](N)C1=N[C@H](C(=O)*)CS1; dOrn = NCCC[C@@H](N)C(=O)O

Tests used:
[1] = system: E. faecium CCUG 37832; assay: MIC determination by standardized microdilution test in Mueller-Hinton broth; type: cell-based, Enterococcus faecium
Method: (§1) MBL-AB01 was tested against a panel of Gram-negative and Gram-positive pathogens. MICs for all Gram-positive and Gram-negative bacterial strains were determined by standardized microdilution tests using Mueller-Hinton broth (Acumedia). Bacterial inoculums containing 5×10^5 CFU/ml were incubated for 19 h at 35° C. in the presence of different antibiotic concentrations according to Clinical and Laboratory Standards Institute protocols. The bacterial strains were obtained from the culture collections ATCC (American Type Culture Collection), NCTC (National Collection of Type Cultures) and CCUG (culture collection university of Göteborg Sweden).

[2] = system: M. luteus, ATCC 9341; assay: as above; type: cell-based, Micrococcus luteus
Method: as §1

[3] = system: E. faecium CTC 492; assay: as above; type: cell-based, Enterococcus faecium
Method: as §1

[4] = system: S. aureus NCTC 6571; assay: as above; type: cell-based
Method: as §1

[5] = system: S. aureus ATCC 29213; assay: as above; type: cell-based
Method: as §1

[6] = system: S. aureus ATCC 43300 (MRSA); assay: as above; type: cell-based
Method: as §1

[7] = system: IMR90 Human Lung Fibroblast (ATCC CCL-186) cells; assay: In vitro cytotoxicity, CellTiter-GLO 2.0 viability assay; type: cell-based; conditions: IMR-90, 24 hours exposure, viability relative to control wells
Method: Xantolipin was obtained from Shaghai Jiao Tong University, China.
IMR90 cells were grown in DMEM—low glucose (Sigma) supplemented with 2 mM L-Glutamine, 1% MEM NEAA (Sigma), 1 mM Sodium Pyruvate, 10 mM HEPES and 100 U/mL Pen-Strep. The cells were subcultured twice or thrice a week at ratios between 1:2 and 1:8, depending on confluency. […] The microplates with cell suspension were shaked at 1600 rpm with 2.5 mm amplitude (Bioshake) for 20 seconds after seeding. […] The microplates with the IMR90 cells were incubated at 37° C. with 5% CO2 atmosphere. […] The serial dilutions with the compounds were further diluted in cell culture medium and transferred to the assay wells, giving a total DMSO concentration in the assay wells of 0.6%. After exposure, the assay plates with the IMR90 cells were further incubated at 37° C. with 5% CO2 atmosphere for 24 hours. The viability of the cells after incubation was measured using the Promega CellTiter-GLO 2.0 viability assay.

[8] = footnote of Table 1: resistance profile of Enterococcus faecium CCUG37832, read-out: Mic
[9] = Micrococcus luteus, ATCC9341, M. luteus, ATCC 9341, 19 h at 35° C., read-out: MIC
[10] = Enterococcus faecium, CCUG37832, E. faecium CCUG 37832 (multiresistant, vanA-positive clinical isolate), 19 h at 35° C., read-out: MIC
[11] = Enterococcus faecium, CTC492, E. faecium CTC 492, 19 h at 35° C., read-out: MIC
[12] = Staphylococcus aureus, NCTC6571, S. aureus NCTC 6571, 19 h at 35° C., read-out: MIC
[13] = Staphylococcus aureus, ATCC29213, S. aureus ATCC 29213, 19 h at 35° C., read-out: MIC
[14] = Staphylococcus aureus, S. aureus ATCC 43300 (MRSA), 19 h at 35° C., read-out: MIC

CC1(C)S[C@@H]2[C@H](NC(=O)[C@H](N)c3ccccc3)C(=O)N2[C@H]1C(=O)O [Ampicillin]
MIC [1, 8]: 20 µg/mL (≈ 57.2 µM)

CN[C@@H]1[C@@H](O[C@H]2O[C@H](CO)[C@@H](N)[C@H](O)[C@H]2O)OC2C[C@@H](N)[C@@H](O[C@H]3[C@H](O)[C@@H](O)[C@H](N)C[C@@H]3N)OC2[C@@H]1O (stereo partly shown) [Apramycin]
MIC [1, 8]: > 20 µg/mL

CC[C@H](C)[C@H](N)C1=N[C@H](C(=O)N[C@@H](CC(C)C)C(=O)N[C@H](CCC(=O)O)C(=O)N[C@H](C(=O)N[C@H]2CCCCNC(=O)[C@H](CC(N)=O)NC(=O)[C@@H](CC(=O)O)NC(=O)[C@H](Cc3cnc[nH]3)NC(=O)[C@@H](Cc3ccccc3)NC(=O)[C@H]([C@@H](C)CC)NC(=O)[C@@H](CCCN)NC2=O)[C@@H](C)CC)CS1 [Bacitracin] ({Ileψ(thiazoline)Cys}-L[dE]IK[dOrn]I[dF]H[dD]N; lactam 4-C)
MIC [1, 8]: > 8 µg/mL

CN(C)[C@@H]1C(O)=C(C(N)=O)C(=O)[C@@]2(O)C(O)=C3C(=O)c4c(O)ccc(Cl)c4[C@@](C)(O)[C@H]3C[C@@H]12 [Chlortetracycline]
MIC [1, 8]: > 10 µg/mL

N[C@@H]1CON=C1O [Cycloserine]
MIC [1, 8]: > 8 µg/mL

CCCCCCCCCC(=O)N[C@@H](Cc1c[nH]c2ccccc12)C(=O)N[C@H](CC(N)=O)C(=O)N[C@@H](CC(=O)O)C(=O)N[C@@H]1C(=O)NCC(=O)N[C@@H](CCCN)C(=O)N[C@@H](CC(=O)O)C(=O)N[C@H](C)C(=O)N[C@@H](CC(=O)O)C(=O)NCC(=O)N[C@H](CO)C(=O)N[C@@H]([C@H](C)CC(=O)O)C(=O)N[C@@H](CC(=O)c2ccccc2N)C(=O)O[C@@H]1C [Daptomycin]
MIC [2, 9]: 0.5 µg/mL (≈ 0.309 µM)
MIC [1, 10]: > 16 µg/mL
MIC [3, 11]: > 16 µg/mL
MIC [4, 12]: 4 µg/mL (≈ 2.47 µM)
MIC [5, 13]: 4 µg/mL (≈ 2.47 µM)
MIC [6, 14]: 4 µg/mL (≈ 2.47 µM)

CCC[C@@H]1C[C@@H](C(=O)N[C@@H]([C@H]2O[C@H](SC)[C@H](O)[C@@H](O)[C@H]2O)[C@@H](C)O)N(C)C1 [Lincomycin]
MIC [1, 8]: > 10 µg/mL

CN[C@@H]1[C@H](O)[C@H](NC)[C@H]2O[C@@]3(O)C(=O)C[C@@H](C)O[C@H]3O[C@@H]2[C@H]1O [Spectinomycin]
MIC [1, 8]: > 8 µg/mL

[H]/N=C(/N)N[C@H]1[C@H](O)[C@@H](O)[C@H](O[C@@H]2O[C@@H](C)[C@](O)(C=O)[C@H]2O[C@@H]2O[C@@H](CO)[C@H](O)[C@@H](O)[C@@H]2NC)[C@@H](N/C(N)=N\[H])[C@@H]1O [Streptomycin]
MIC [2, 9]: 8 µg/mL (≈ 13.8 µM)
MIC [1, 10]: > 16 µg/mL
MIC [3, 11]: > 16 µg/mL
MIC [4, 12]: 16 µg/mL (≈ 27.5 µM)
MIC [5, 13]: 16 µg/mL (≈ 27.5 µM)
MIC [6, 14]: 16 µg/mL (≈ 27.5 µM)

CN[C@H](CC(C)C)C(=O)N[C@H]1C(=O)N[C@@H](CC(N)=O)C(=O)N[C@H]2C(=O)N[C@H]3C(=O)N[C@H](C(=O)N[C@H](C(=O)O)c4cc(O)cc(O)c4-c4cc3ccc4O)[C@H](O)c3ccc(c(Cl)c3)Oc3cc2cc(c3O[C@@H]2O[C@H](CO)[C@@H](O)[C@H](O)[C@H]2O[C@H]2C[C@](C)(N)[C@H](O)[C@H](C)O2)Oc2ccc(cc2Cl)[C@H]1O [Vancomycin]
MIC ([2]; Micrococcus luteus, ATCC9341, 19 h): 1 µg/mL (≈ 0.69 µM)
MIC ([1]; Enterococcus faecium, CCUG37832): > 20 µg/mL
MIC ([1]; Enterococcus faecium, CCUG37832, 19 h): > 16 µg/mL
MIC ([3]; Enterococcus faecium, CTC492, 19 h): 1 µg/mL (≈ 0.69 µM)
MIC ([4]; Staphylococcus aureus, NCTC6571, 19 h): 2 µg/mL (≈ 1.38 µM)
MIC ([5]; Staphylococcus aureus, ATCC29213, 19 h): 2 µg/mL (≈ 1.38 µM)
MIC ([6]; Staphylococcus aureus, 19 h): 2 µg/mL (≈ 1.38 µM)

COc1c(Cl)ccc2c(=O)c3c(O)c4c5c(c3oc12)OCO[C@@H]5C[C@@H]1C(=O)c2cc(C)[nH]c(=O)c2C(=O)[C@]41O [Xantholipin]
EC50 [7]: 1 µg/mL (≈ 1.81 µM)

CC[C@H]1OC(=O)[C@H](C)[C@@H](O[C@H]2C[C@@](C)(OC)[C@@H](O)[C@H](C)O2)[C@H](C)[C@@H](O[C@@H]2O[C@H](C)C[C@H](N(C)C)[C@H]2O)[C@](C)(O)C[C@@H](C)C(=O)[C@H](C)[C@@H](O)[C@]1(C)O [erythromycin]
MIC [1, 8]: > 20 µg/mL

Gentamicin
MIC ([2]; M. luteus, ATCC 9341, 19 h at 35° C.): 4 µg/mL
MIC ([1]; E. faecium CCUG 37832 (multiresistant, vanA-positive clinical isolate), 19 h at 35° C.): 16 µg/mL
MIC ([3]; E. faecium CTC 492, 19 h at 35° C.): 16 µg/mL
MIC ([4]; S. aureus NCTC 6571, 19 h at 35° C.): 4 µg/mL
MIC ([5]; S. aureus ATCC 29213, 19 h at 35° C.): 4 µg/mL
MIC ([6]; S. aureus ATCC 43300 (MRSA), 19 h at 35° C.): 16 µg/mL
